According to patent publication US10479788B2, “Compounds that inhibit MPS1 kinase” (Cancer Research Technology Limited, priority 2012, dated 2019):

Biological target: full length MPS1 (Homo sapiens (Human), UniProt P33981)
Assay: Measurement of Inhibition of MPS1 Kinase
Format: biochemical
Conditions: full length MPS1 12.5 nM or 3 nM, H236 peptide 5 μM, ATP 10 μM, 60 min at room temperature, Caliper EZ reader II
Protocol: The reaction was carried out for 60 min at room temperature and stopped by the addition of buffer (10 μl) containing 20 mM EDTA, 0.05% (v/v) Brij-35, in 0.1M HEPES-buffered saline (Free acid, Sigma, UK). The plate was read on a Caliper EZ reader II (Caliper Life Sciences).
The % inhibition of the compounds is calculated relative to the means of selected control wells. […] The % inhibitions at each concentration are then fitted to a 4 parameter logistic fit: y=(a+((b−a)/(1+((c/x^d)))) where a=asym min, b=asym max, c=IC50 and d=hill coefficient

Sequence of full length MPS1 (P33981 whole entry): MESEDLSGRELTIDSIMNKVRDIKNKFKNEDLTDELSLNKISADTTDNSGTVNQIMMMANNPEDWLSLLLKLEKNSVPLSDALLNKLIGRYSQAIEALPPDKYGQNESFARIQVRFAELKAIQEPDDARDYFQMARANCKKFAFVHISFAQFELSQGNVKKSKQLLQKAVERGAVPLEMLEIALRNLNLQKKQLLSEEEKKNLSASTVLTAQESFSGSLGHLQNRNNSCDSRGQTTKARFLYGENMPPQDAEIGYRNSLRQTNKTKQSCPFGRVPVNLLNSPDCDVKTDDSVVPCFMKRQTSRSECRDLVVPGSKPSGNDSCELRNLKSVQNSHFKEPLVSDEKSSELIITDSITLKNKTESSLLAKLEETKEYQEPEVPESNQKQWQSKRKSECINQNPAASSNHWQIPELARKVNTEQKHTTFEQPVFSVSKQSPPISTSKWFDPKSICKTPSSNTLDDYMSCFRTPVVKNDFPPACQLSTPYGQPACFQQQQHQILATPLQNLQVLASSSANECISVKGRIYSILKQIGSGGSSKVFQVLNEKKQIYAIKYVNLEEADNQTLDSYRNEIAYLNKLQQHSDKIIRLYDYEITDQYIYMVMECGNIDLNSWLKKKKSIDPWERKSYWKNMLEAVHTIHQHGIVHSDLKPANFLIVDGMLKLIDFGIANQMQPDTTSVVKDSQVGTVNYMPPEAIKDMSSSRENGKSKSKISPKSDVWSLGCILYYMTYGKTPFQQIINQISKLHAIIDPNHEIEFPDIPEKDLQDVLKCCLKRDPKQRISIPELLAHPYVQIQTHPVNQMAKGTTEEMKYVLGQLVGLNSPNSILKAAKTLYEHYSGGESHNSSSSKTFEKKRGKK

COc1cc(-c2cnn(C)c2)ccc1Nc1ncc2ccnc(N3CCCC3C)c2n1 (stereo not shown) [Example 64]
IC50: 6 nM
